Measurements: US9981968B2, “Substituted pyrrolo[2,3-d]pyrimidines for the treatment of cancer and proliferative disorders” (Northwestern University, priority 2013, dated 2018)

Legend:
SF-268 = experiment: SRB growth assay, SF-268; format: cell-based; conditions: Homo sapiens, SF-268 (CNS), 48 hours, read-out: Percent viability
Text: (§1) Tested cell lines included, Leukemia: CCRF-CEM, HL-60(TB), MOLT-4, RPMI-8226 and SR; Non-Small Cell Lung: A549/ATCC, EKVX, HOP-62, HOP-92, NCI-H226, NCI-H23, NCI-H322M, NCI-H460 and NCI-H522; Colon: COLO 205, HCC-2998, HCT-116, HCT-15. HT29, KM12 and SW-620; CNS: SF-268, SF-295, SF-539, SNB-19, SNB-75 and U251; Melanoma: LOX IMVI, MALME-3M, M14, MDA-MB-435, SK-MEL-2, SK-MEL-28, SK-MEL-5, UACC-257 and UACC-62; Ovarian: IGR-OV1, OVCAR-3, OVCAR-4, OVCAR-5, OVCAR-8. NCI/ADR-RES and SK-OV-3; Renal: 786-0, A498, ACHN, CAKI-1, RXF 393, SN12C, TK-10 and UO-31; Prostate: DU-145 and PC-3; and Breast: MCF7, MDA-MB-231/ATCC, MDA-MB-468, HS 578T, BT-549 and T-47D.
(§2) The cells were cultured in RPMI1640 media supplemented with 10% Fetal Bovine Serum (FBS), 2 mM glutamine and with 5% CO2 and 37° C. For experiment, 5% of FBS and 50 ug/mL of gentamycin were used. Test articles were 10 μM of NUCL 381-3 or 10 μM NUCL 383-3. The positive control was 10 μM of doxorubicin.
(§3) Cells were plated in 96 well plates. The cells were plated in triplicate. Cells were plated at the densities based on NCI recommendation. Time zero cells (Tz) were fixed the following day with 50% or 80% ice cold Trichloracetic acid (TCA) and washed 5× with water. At 48 hours post addition of treatments, all remaining plates were fixed in 80% ice cold Trichloracetic acid (TCA) and washed 5× with water. After drying, one hundred microliters of 0.4% Sulphorhodamine B (SRB) in 1% acetic acid was added to each plate including the Tzero plate and incubated for 10 minutes at room temperature. After 5 additional washes with 1% acetic acid, plates were allowed to dry. One hundred microliters of Trizma base was added to each well and plates were read at 515 nm.
(§4) Percent of growth was calculated by the following formulas: [Ti/C]×100, where: Tz=absorbance readings for wells at time zero without treatment; C=absorbance readings of untreated cells (without treatment); and Ti=absorbance reading of wells with treatment.

OVCAR-8 = experiment: SRB growth assay, OVCAR-8; format: cell-based; conditions: Homo sapiens, OVCAR-8 (Ovarian), 48 hours, read-out: Percent viability
Text: as §1, §2, §3, §4

HL-60(TB) = experiment: SRB growth assay, HL-60(TB); format: cell-based; conditions: Homo sapiens, HL-60(TB) (Leukemia), 48 hours, read-out: Percent viability
Text: as §1, §2, §3, §4

A549 = experiment: SRB growth assay, A549; format: cell-based; conditions: Homo sapiens, A549 (Non-Small Cell Lung), 48 hours, read-out: Percent viability
Text: as §1, §2, §3, §4

NCI-H23 = experiment: SRB growth assay, NCI-H23; format: cell-based; conditions: Homo sapiens, NCI-H23 (Non-Small Cell Lung), 48 hours, read-out: Percent viability
Text: as §1, §2, §3, §4

SK-MEL-5 = experiment: SRB growth assay, SK-MEL-5; format: cell-based; conditions: Homo sapiens, SK-MEL-5 (Melanoma), 48 hours, read-out: Percent viability
Text: as §1, §2, §3, §4

OVCAR-4 = experiment: SRB growth assay, OVCAR-4; format: cell-based; conditions: Homo sapiens, OVCAR-4 (Ovarian), 48 hours, read-out: Percent viability
Text: as §1, §2, §3, §4

CAKI-1 = experiment: SRB growth assay, CAKI-1; format: cell-based; conditions: Homo sapiens, CAKI-1 (Renal), 48 hours, read-out: Percent viability
Text: as §1, §2, §3, §4

CCRF-CEM = experiment: SRB growth assay, CCRF-CEM; format: cell-based; conditions: Homo sapiens, CCRF-CEM (Leukemia), 48 hours, read-out: Percent viability
Text: as §1, §2, §3, §4

K-562 = experiment: SRB growth assay, K-562; format: cell-based; conditions: Homo sapiens, K562, K-562 (Leukemia), 48 hours, read-out: Percent viability
Text: as §1, §2, §3, §4

HCT-15 = experiment: SRB growth assay, HCT-15; format: cell-based; conditions: Homo sapiens, HCT-15 (Colon), 48 hours, read-out: Percent viability
Text: as §1, §2, §3, §4

OVCAR-5 = experiment: SRB growth assay, OVCAR-5; format: cell-based; conditions: Homo sapiens, OVCAR-5 (Ovarian), 48 hours, read-out: Percent viability
Text: as §1, §2, §3, §4

SK-MEL-2 = experiment: SRB growth assay, SK-MEL-2; format: cell-based; conditions: Homo sapiens, SK-MEL-2 (Melanoma), 48 hours, read-out: Percent viability
Text: as §1, §2, §3, §4

OVCAR-3 = experiment: SRB growth assay, OVCAR-3; format: cell-based; conditions: Homo sapiens, OVCAR-3 (Ovarian), 48 hours, read-out: Percent viability
Text: as §1, §2, §3, §4

RXF 393 = experiment: SRB growth assay, RXF 393; format: cell-based; conditions: Homo sapiens, RXF 393 (Renal), 48 hours, read-out: Percent viability
Text: as §1, §2, §3, §4

U937 cell lines = experiment: Immunoblot of PARP cleavage and cleaved caspase 3; format: cell-based, human; conditions: U937 cell lysates, FIG. 17
Procedure: FIG. 17. Immunoblot of cell lysates from U937 cell lines treated with Compounds 381, 383, 409 (as test compounds) and Compound 501 (as a negative control) as compared to 8-amino adenosine (8NH2-Ado) and 8-chloro adenosine (8Cl-Ado) (as positive controls). The impact of the compounds on proteins associated with cell death was assessed via performing an immunoblot. (See FIG. 17). PARP cleavage indicated activation of the caspase cascade and cell death by induction of apoptosis. Similarly detection of cleaved caspase 3 indicated activation of caspase activity and cell death by apoptosis. GAPDH was included as a loading control to indicate approximately equal loading of protein.

MM.1S cells = experiment: MTS CellTiter 96 cell proliferation assay, MM.1S; format: cell-based, human
Procedure: Cell viability was assessed by MTS assay as follows.
The MTS CellTiter 96 assay is a colorimetric method to assess the number of viable cells based on the conversion of a tetrazolium compound (MTS) to a formazan product by the mitochondrial dehydrogenase enzyme of the cells. This assay is used to determine the number of viable cells remaining following a drug treatment in comparison to the number of viable cells that are only treated with the drug vehicle (control cells). The amount of formazan product in the control cells is normalized to 100% and the amount of formazan in the drug treated cells is expressed as a percentage of control. This is used to generate dose response curve and estimate the drug concentration that produced a 50% decrease in the number of viable cells.

SMILES	viability at 10 µM (SF-268)	viability at 10 µM (OVCAR-8)	viability at 10 µM (HL-60(TB))	viability at 10 µM (A549)	viability at 10 µM (NCI-H23)	viability at 10 µM (SK-MEL-5)	viability at 10 µM (OVCAR-4)	viability at 10 µM (CAKI-1)	viability at 10 µM (CCRF-CEM)	viability at 10 µM (K-562)	viability at 10 µM (HCT-15)	viability at 10 µM (OVCAR-5)	viability at 10 µM (SK-MEL-2)	viability at 10 µM (OVCAR-3)	viability at 10 µM (RXF 393)	induction of apoptosis (PARP cleavage, cleaved caspase 3) (U937 cell lines)	decreasing cell proliferation (MM.1S cells; 0.1-10 μM, MTS assay, FIG. 1, compared with 8-amino adenosine)	IC50 (MM.1S cells; Homo sapiens, MM1.S, MTS cell proliferation assay, read-out: Estimated IC50)
COc1cccc2c1C(=O)c1c(O)c3c(c(O)c1C2=O)C[C@@](O)(C(=O)CO)C[C@@H]3O[C@H]1C[C@H](N)[C@H](O)[C@H](C)O1 [Doxorubicin, reference compound]	6.91%	15%	25%	86.8%	27.6%	7.01%	103%	0%	43.6%	17.1%	31.1%	57.1%	11.6%	16.8%	8.68%			
FC(F)(F)c1cn(CC2CCNCC2)c2ncnc(Cl)c12 [NUCC-0000381]	3.37%	31.7%	25.8%	28.2%	42.3%	100%	53%	86.8%	52.8%	8.38%	40.4%	76.8%	106%	48.7%	12%	Induction of apoptosis was observed	as effective in decreasing cell proliferation as 8-amine-adenosine	600 nM
CS(=O)(=O)N1CCC(Cn2cc(C(F)(F)F)c3c(Cl)ncnc32)CC1 [NUCC-0000383]	1.77%	73.9%	22.5%	100%	46.1%	6.11%	97%	46.8%	54%	10.2%	38.8%	104%	14.7%	95.5%	7.81%			
